According to paper PMC11375437, “Selective labelling of GBA2 in cells with fluorescent β-D-arabinofuranosyl cyclitol aziridines” (Chemical Science, 2024):

Biological target: T1, GBA3 (Homo sapiens, UniProt Q9H227)
T1 construct: expressed in transfected cells; host or cells: HEK293T GBA1/GBA2 KO, GBA3 overexpressed
T1 sequence (Q9H227 1-469): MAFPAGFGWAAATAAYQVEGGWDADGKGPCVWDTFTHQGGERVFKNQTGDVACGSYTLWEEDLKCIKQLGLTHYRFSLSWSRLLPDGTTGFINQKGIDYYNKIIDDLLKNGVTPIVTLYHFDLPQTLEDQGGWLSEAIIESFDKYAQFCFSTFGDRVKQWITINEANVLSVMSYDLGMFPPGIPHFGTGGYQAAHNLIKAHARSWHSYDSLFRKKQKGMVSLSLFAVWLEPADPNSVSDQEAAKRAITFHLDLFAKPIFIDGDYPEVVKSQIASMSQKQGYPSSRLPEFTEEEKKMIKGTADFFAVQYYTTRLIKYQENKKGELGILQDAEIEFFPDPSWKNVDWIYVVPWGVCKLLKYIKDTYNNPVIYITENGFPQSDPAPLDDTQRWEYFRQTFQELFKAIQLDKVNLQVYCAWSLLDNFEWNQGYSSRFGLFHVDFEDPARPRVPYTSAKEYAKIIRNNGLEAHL
Assay: 4MU fluorogenic substrate assay for apparent IC50, GBA3
Type: biochemical
Settings: 30 min pre-incubation, 4MU-β-D-Glc
From the text: To identify an ABP that selectively labels human GBA2 over GBA1 and GBA3, a library of cyclophellitol-based ABPs with varying configurations (ESI Fig. S1 ^†) was screened for their selectivity towards human retaining β-glucosidases. For this purpose, we initially assessed the inhibition properties of the compounds using recombinant human GBA1 (rhGBA1, imiglucerase), lysates of cells overexpressing GBA2 or GBA3 (both in combination with knockout of the other retaining β-glucosidases). In a preliminary screen, enzymes were pre-incubated for 30 min with the tested compounds, followed by the addition of the fluorogenic substrate, 4MU-β-D-Glc, and subsequent quantification of released fluorescent 4MU after 30 minutes. This screening brought our attention to a new set of β-D-Araf cyclitol aziridines as potential GBA2 inhibitors. […] On the other hand, the biotin-tagged β-D-Araf compound 6 is a poor inhibitor of all three glucosidases (apparent IC50 > 8 μM). Arabinofuranosyl cyclitol 12–20 with various configurations (α-L-Araf and β-L-Araf) were also evaluated (ESI Fig. S1 ^†).
Recombinant human GBA1 (rhGBA1, Imiglucerase) was kindly provided by Sanofi Genzyme (Cambridge, MA, USA). 4-Methylumbelliferyl-β-D-glucopyranoside substrates were purchase from Glycosynth (Warrington Cheshire, UK). Protein concentration was measured using the Pierce BCA assay kit (Thermo Fisher Scientific, Waltham, MA, USA). Harvested cells (cell pellets), cell lysates and tissue homogenates not used directly were stored at -80 °C.
HEK293T (CRL‐3216™) cells were purchased from ATCC (Manassas, VA, USA). HEK293T cells were cultured in DMEM medium (Sigma‐Aldrich), supplied with 10% (v/v) FCS, 0.1% (w/v) penicillin/streptomycin and 1% (v/v) Glutamax, under 37 °C and 5% or 7% CO2. […]
2.3 Generation of cells genetically modified for β-glucosidase expression For overexpression of the different β-glucosidases, "wildtype" HEK293T cells, HEK293T cells with GBA2 knockout (KO) or HEK293T cells with both GBA1 and GBA2 KO were used, following by the overexpression (OE) of targeted β-glucosidases using the constructs as described in references.1,2 Either GBA2 or GBA3 were overexpressed in GBA1/GBA2 KO HEK293T (generated by the CRISPR/Cas9 method2) to generate GBA1/2 KOs with GBA2 (or GBA3) for overexpression in HEK293T cells as indicated, or using "wildtype" HEK293T cells containing endogenous GBA1 and GBA2 to overexpress both GBA2 and GBA3, these were generated as described in our previous report.1,2 […]
Cells were cultured with the method described above to 80-90% confluency, and were isolated, washed with Dulbecco′s phosphate buffered saline (PBS) and subsequently collected using the following method.3 HEK293T and RPE-1 cells were easily detached from the culture plate by trypsin treatment after which some DMEM medium was added. The cells were collected by pipetting and DMEM medium was removed by centrifuging. The cells were washed with cold PBS three times, after which they were centrifuged to remove PBS and then stored at –80 °C for further use or lysed in potassium phosphate buffer (K2HPO4-KH2PO4, 25 mM, pH 6.5, supplemented with 0.1% (v/v) Triton X-100 and protease inhibitor cocktail (EDTA-free, Roche, Basel, Switzerland)) by sonication with a Polytron PT 1300D sonicator (Kinematica, Luzern, Switzerland). After sonication, lysed mixtures were centrifuged at 10,000 x g for 3 min at 4°C, and the supernatants where desired β-glucosidases exist were used for the experiment.
2.5 4MU fluorogenic substrate assay for apparent IC50 determination
4MU fluorogenic substrate assays (using recombination human rhGBA1 or lysates of HEK293T cells) were conducted in 96-well plates at 37 °C. Samples were diluted with McIlvaine buffer (150 mM citric acid-Na2HPO4) to a final volume of 25 μL, at the appropriate pH for each enzyme. Assays were performed by incubating the samples with 100 μL 4-methylumbelliferyl-β-D-glucopyranoside substrate diluted in McIlvaine buffer for a period of 30 min. […]

[1] = GBA1/GBA2 KO GBA3 OE HEK293T cell lysate, pH 6.0, n = 3 for β-D-Araf, n = 1 for α-L-Araf and β-L-Araf

Structure (SMILES) | IC50 [1] [µM] | IC50 [µM]
[N-]=[N+]=NCCCCCCCCN1[C@@H]2[C@H](CO)[C@@H](O)[C@H](O)[C@@H]21 (stereo partly drawn) [Compound 2, β-D-arabinofuranosyl cyclitol aziridine-azidooctyl] | 8.15 | 
CC1=CC(C)=[N+]2C1=C(CCCCc1cn(CCCCCCCCN3[C@@H]4[C@H](CO)[C@@H](O)[C@H](O)[C@@H]43)nn1)c1c(C)cc(C)n1[B-]2(F)F (some centres unmarked) [ABP 3] | > 10 | 
COc1ccc(C2=[N+]3C(=C(CCCCc4cn(CCCCCCCCN5[C@@H]6[C@H](CO)[C@@H](O)[C@H](O)[C@@H]65)nn4)c4ccc(-c5ccc(OC)cc5)n4[B-]3(F)F)C=C2)cc1 (some centres unmarked) [ABP 4] | > 10 | 
OC[C@@H]1[C@@H](O)[C@H](O)[C@@H]2N[C@H]12 [Compound 1, β-D-Arabinofuranosyl cyclitol aziridine] | > 50 | > 50
CN1/C(=C/C=C/C=C/C2=[N+](CCCCCC(=O)NCc3cn(CCCCCCCCN4[C@@H]5[C@H](CO)[C@@H](O)[C@H](O)[C@@H]54)nn3)c3ccccc3C2(C)C)C(C)(C)c2ccccc21 (some centres unmarked) [ABP 5] | 1.52 ± 0.159 | 
O=C(CCCC[C@@H]1SC[C@@H]2NC(=O)N[C@@H]21)NCc1cn(CCCCCCCCN2[C@@H]3[C@H](CO)[C@@H](O)[C@H](O)[C@@H]32)nn1 (some centres unmarked) [ABP 6] | 10.3 ± 1.9 | > 8
